Consider eight compounds from patent US20090258836A1, “EFFECTIVE DELIVERY OF CROSS-SPECIES A3 ADENOSINE-RECEPTOR ANTAGONISTS TO REDUCE INTRAOCULAR PRESSURE” (The Trustees of The University of Pennsylvania, priority 2006, published 2009).

In one assay the target is human A2A receptors (Homo sapiens, UniProt P29274). Particulars: literature; read-out: Ki for the binding to human A2A receptors; cited from earlier work.
Assay [1] deals with HCE (human ciliary epithelial) cell line, NPE cells. The assay is described as follows: Cell volume in isosmotic solution (isosmotic shrinkage), Coulter Counter. Type of assay: cell-based. As to the method: Cell Culture The HCE (human ciliary epithelial) cell line (Carre et al., supra, 1997) is an immortalized NPE cell line obtained from primary cultures of adult human epithelium. […] Eye Res. 57:3057-3063 (1993); Yantorno et al., Exp. Eye Res. 49:423-437 (1989)). […] Cells were passaged every 6-7 days and were studied 8-13 days after passage, after reaching confluence. An immortalized PE-cell line from a primary culture of bovine pigmented ciliary epithelium were also grown under matching conditions. Measurement of Cell Volume in Isosmotic Solution: The volume of PE and NPE cells was measured, since the movement of fluid underlies a change in PE and NPE cell volume, respectively. This is also thought to be the same as the movement of fluid which underlines the secretion of aqueous humor (FIG. 1). […] Parallel aliquots of cells were studied on the same day. One aliquot usually served as a control, and the others were exposed to different experimental conditions at the time of suspension. The same amount of solvent vehicle (dimethylformamide, DMSO or ethanol) was always added to the control and experimental aliquots. […] Cell volumes of isosmotic suspensions were measured with a Coulter Counter (model ZBI-Channelyzer II), using a 100 μm aperture (Civan et al., supra, 1994). As previously described (Wax et al., supra, 1993), the cell volume (vC) of the suspension was taken as the peak of the distribution function. Cell shrinkage was fit as a function of time (t) to a monoexpenential function: […]^0^)/τ] {1) where v∞ is the steady-state cell volume, v0 is the cell volume at the first point (t0) of the time course to be fit, and τ is the time constant of the shrinkage. For purposes of data reduction, the data were normalized to the first time point, taken to be 100% isotonic volume. Fits were obtained by nonlinear least-squares regression analysis, permitting both v∞ and τ to be variables. […] Med. Chem. 37:636-646 (1994; Jacobson et al., supra, 1995; Jacobson et al., FEBS Lett. 336:57-60 (1993)).

The test system of assay [2] is mouse IOP. The assay is described as follows: Mouse IOP after topical application, invasive servo-null micropipette system (SNMS). The class given is in vivo, Black Swiss mice. As to the method:
(§1) The test animals were black Swiss outbred mice of mixed sex, 7-9 weeks old and 25-30 g in weight, obtained from Taconic Inc. (Germantown, N.Y.), and maintained under 12:12-h light/dark illumination cycle and allowed unrestricted access to food and water. Mice were anesthetized with intraperitoneal ketamine ([…]) supplemented by topical proparacaine HCl 0.5% (Allergan, Bausch & Lomb) for the IOP measurements. IOP was measured invasively (SNMS) and non-invasively by pneumotonometry in separate animals.
By the SNMS approach (Avila et al., supra, 2001), the exploring micropipette, of […] outer diameter, was filled with a highly conducting solution and advanced across the cornea into the anterior chamber. A refined technique by Wang et al., Invest. Opthalmol. Vis. Sci. (serial online) (Aug. 31, 2006) available at www.iovs.org/egi/letters/46/9/3274#422, enhanced stability and reduce the background noise of the records, permitting fabrication of micropipettes whose resistance is 0.1-0.3 MΩ, rather than the 0.25-0.4 MΩ used initially. The filling solution was reduced from 3M KCl to 2M NaCl, rather than 3 M KCl. The resistance of the filled micropipette was balanced in a bridge circuit, and the tip was then advanced across the cornea. Upon entering the anterior chamber of the eye, the IOP forces the much lower-conducting aqueous humor into the micropipette tip, displacing the original filling solution. The micropipette resistance was thereby increased, unbalancing the bridge circuit and triggering a bellows to provide a counter-pressure, restoring the position of the filling solution and returning the resistance to its initial value. Thus, the value of the counter-pressure equals the IOP. As in the past (Avila et al., supra, 2001), the stability of the records permitted continuous measurements for tens of minutes during the course of drug applications.
(§2) Ketamine HCl was purchased from Phoenix Pharmaceutical Inc. (St. Joseph, Mo.). Other drugs were obtained from Sigma Chemical (St. Louis, Mo.). Drugs were applied topically with an Eppendorf pipette. […] The final droplet solution contained the drugs at the stated concentrations together with <2% DMSO and 0.0005% benzalkonium chloride at an osmolality of 295-300 mOsm. DMSO was omitted, altogether, from droplets containing the hydrophilic compounds adenosine, carbachol and carboxyfluorescein.
(§3) Effects on invasively-measured IOP were measured 10 min after topical application because after this time, the continued presence of the micropipette can be associated with a downward drift of the IOP, even under control conditions. In contrast, smaller droplets ([…]) were applied to the eye more frequently (three times instead of once) with the non-invasive technique, in order to forestall drying of the eye associated with the airflow from the pneumotonometer. With the non-invasive protocol, the IOP was stable for 30 min under control conditions.
In Table 1, an endpoint of 10 minutes was used for the invasive measurements in light of the above-discussed downward drift of the IOP, even under control conditions. Also the need for smaller, more frequent droplets are discussed above with regard to the non-invasive technique using the pneumotonometer. As above, with the non-invasive protocol, the IOP was stable for 30 minutes under control conditions.

The subject of assay [3] is mouse IOP. Kind of assay: Mouse IOP after topical application, non-invasive pneumotonometry. Type of assay: in vivo, Black Swiss mice. Conditions: for Δ(IOP) Pneumotonometer: topical droplets 200 nM (1% DMSO), 30 min. As to the method: as §1
By comparison, IOP was measured non-invasively by pneumotonometry (OBT) (Avila et al., supra, 2005). As previously described, the commercially available tip of the ocular blood tomography (OBT) pneumotonometer (Blood Flow Analyzer [BFA] probe tip; Paradigm Medical Industries Inc.) was fit to a custom-built mount. Air flow from a constant pressure source was passed through the mount to reach a diaphragm forming the end of the BFA tip. The flow of air displaces the diaphragm outward, permitting escape of the air through holes in the wall of the probe tip into the atmosphere. Pressure was monitored with a transducer connected through a T-connection to the base of the BFA tip. The probe assembly was advanced to the cornea with a three-axis micromanipulator. The probe tip was advanced sufficiently to make contact with the tear film, as was indicated by a shift in the baseline output reading. In a refined method, the tip was withdrawn until the […] was visually displaced from the tear film. The output was then adjusted to zero before advancing the tip again. Contact with the cornea depresses the diaphragm of the BFA tip, occluding access of the air flow to the escape holes and raising the pressure at the base of the tip.
This approach was simplified to expedite identification of the endpoint, and the probe was subsequently advanced in about 10 standardized steps of approximately […] at intervals of about 10 seconds to identify the inflection region (Wang et al., supra, 2006). […] The pneumotonometric estimates of IOP were previously found to agree with manometric measurements in cannulated preparations and with estimates obtained by the servo-null technique (Avila et al., supra, 2005). Having established the baseline value of IOP, the position along the axis of advance of the micromanipulator was noted, and the probe was retracted from contact with the cornea. Subsequent measurements of IOP at later time points were obtained by advancing the probe tip to the same position, with the placement of the mouse maintained stereotactically. The measurements were conducted at 10-min intervals to avoid potential artifacts associated with prolonged pressure on the cornea.
as §2, §3
In Table 1, an endpoint of 10 minutes was used for the invasive measurements in light of the above-discussed downward drift of the IOP, even under control conditions. […]

In assay [4] the test system is mouse IOP. The assay is described as follows: Mouse IOP monitored with SNMS, protocols of Yang et al. 2005. Type of assay: in vivo. As to the method: Pharmacol. 65:1675-1684 (2003)), is effective both in blocking adenosine-triggered shrinkage of cultured human NPE cells and in lowering IOP of mice (Yang et al., supra, 2005). MRS-1292 was tested on the mouse for two reasons. Transgenic mice provide a convenient opportunity for studying the molecular physiology and pharmacology in the living animal ([…] al., supra, 2003). Second, measurement of IOP permitted us to assess the effects of MRS-1292 on the target parameter. […] Therefore, to directly assess the effect of MRS-1292 in vivo in the mouse, IOP was monitored before and after drug application. IOP was monitored with the Servo-Null-Micropipette System (SNMS). The test protocols are described in detail by Yang et al. supra, 2005, herein incorporated by reference. […] In comparison, addition of the same volume of saline at the same osmolality produced no significant change in IOP (-0.3±1.2 mmHg, n=6, p>0.8) 14 min later. […] To estimate an approximate range, “penetrance” was defined by Yang et al. as the ratio of the published Ki value at receptors in vitro to the minimally effective droplet concentration, for a number of adenosine agonists and antagonists. Thus, penetrance ranges from 1:100 to 1:1000 for purinergic drugs that have been tested in the mouse, and it is not very different from the drug penetrance of 1:100 for agents applied topically to rabbits and primates. This rule of thumb also applies to acylguanidine blockers and bumetanide, whose topical effects have also been studied in the mouse eye. Thus, the approximately 1:1000 penetrance that Yang et al. reported in the 2003 citation for MRS 1292 in the present experiments is consistent with past studies

Another assay has as its system cultured human NPE cells. Conditions: cited from earlier work.
Another assay concerns pupil size. The assay is described as follows: Pupil diameter after topical carbachol with or without corneal impalement. The class given is in vivo, mouse. As to the method:
as §1
To measure pupil diameter, the pupil and an adjacent ruler having 1-mm graticules were imaged with a digital camera. Care was taken to avoid applying mechanical stress, and consequently to avoid displacing the micropipette tip from its position in the anterior chamber. Lengths were measured by IMAGE J (National Institutes of Health) and the pupil diameters were calibrated to the ruler.
Pupillary diameter was measured before and 10 min after topical addition of […] containing 40 mM ([…]) of the miotic carbachol to both eyes of the mouse. One eye was not punctured; the other eye was impaled with the SNMS micropipette. Either the right or left eye of each mouse was chosen randomly for impalement. At so low a topical concentration and in the absence of a micropipette, exposure to carbachol for 10 min had no significant effect on pupillary size. The baseline diameter was 1.80±0.11, and was insignificantly changed by carbachol application, increasing by 0.12±0.17 mm (n=6, P>0.4).

Entries after “also recorded” stand apart in the source; their conditions may differ.

Sequence of human A2A receptors (P29274 whole entry): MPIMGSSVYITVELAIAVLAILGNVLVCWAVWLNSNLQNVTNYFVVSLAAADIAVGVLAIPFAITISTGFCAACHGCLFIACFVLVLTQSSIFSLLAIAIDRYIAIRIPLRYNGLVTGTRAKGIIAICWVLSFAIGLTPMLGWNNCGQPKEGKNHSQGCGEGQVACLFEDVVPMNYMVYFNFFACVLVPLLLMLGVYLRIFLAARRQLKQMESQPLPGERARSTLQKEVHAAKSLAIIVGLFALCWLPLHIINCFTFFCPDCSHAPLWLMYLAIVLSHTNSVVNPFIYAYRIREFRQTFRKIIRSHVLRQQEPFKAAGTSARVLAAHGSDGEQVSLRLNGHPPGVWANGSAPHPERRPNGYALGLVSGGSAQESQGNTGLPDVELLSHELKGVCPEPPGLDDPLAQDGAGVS

On to “3-ethyl 5-benzyl-2-methyl-6-phenyl-4-styryl-1,4-(±)-dihydropyridine-3,5-dicarboxylate [MRS-1097]”, for which, on human A2A receptors, the Ki is 4.77 µM.

Consider `CCNC(=O)[C@H]1O[C@@H](n2cnc3c(N)nc(NCCc4ccc(CCC(=O)O)cc4)nc32)[C@H](O)[C@@H]1O` [CGS-21680], for which the “effect of agonist on isosmotic volume of NPE cells” value in assay [1] (agonist 100 nM) is “exerted no effect; also recorded: no detectable effect”; in assay [1] (agonist 3 μM), “triggered isosmotic shrinkage; also recorded: did trigger isosmotic shrinkage”.

Take `OC[C@H]1O[C@@H](n2cnc3c(NC4CCCC4)ncnc32)[C@H](O)[C@@H]1O` [CPA, N^6-cyclopentyladenosine]: the “effect of agonist on isosmotic volume of NPE cells” value in assay [1] (30 nM and 1 μM (data not shown, N=3)) was “no significant shrinkage”; in assay [1] (agonist 100 nM) it was “had little effect; also recorded: small slow effect of uncertain significance”; in assay [1] (agonist 3 μM) it was “none at all; also recorded: no significant shrinkage”.

Consider `CNC(=O)[C@H]1O[C@@H](n2cnc3c(NCc4cccc(I)c4)nc(Cl)nc32)[C@H](O)[C@@H]1O` [Cl-IB-MECA], for which, in assay [1] (in the presence of gramicidin, concentration not given), the “shrinkage of HCE cells” value was “produced shrinkage of HCE cells”. Moreover, in the assay with mouse IOP [2] (SNMS, after 10 min, adenosine 10 mM, Cl-IB-MECA 200 nM droplet), the “increase in IOP over baseline” value came to 10.0±2.9 mmHg. Moreover, the “Δ(IOP) Servo-Null” value in the assay on mouse IOP [2] (topical droplet 200 nM (1% DMSO), endpoint 10 min) is given as “+10.0 ± 2.9 mm Hg”. In the assay on mouse IOP [3] (pneumotonometry, topical, MRS-3833 at 200 nM), the “effect on mouse IOP measured non-invasively (in words)” value is “produced no significant increase in IOP”. Besides, the “Δ(IOP) Pneumotonometer” value with mouse IOP [3] was “+0.7 ± 1.4 mm Hg”.

For `O=C1NCCC12O[C@@H](n1cnc3c(NCc4cccc(I)c4)ncnc31)[C@H](O)[C@@H]2O` (stereo partly drawn) [MRS-1292], the “time of maximum reduction in IOP, mean” value with mouse IOP [4] (25 μM) stood at 15 ± 1 min. Further, the “maximum reduction in IOP” value in the assay with mouse IOP [4] (droplets containing 25 μM) came out at 4.4±0.8 mm Hg. In addition, the “time constant (τ) of the adenosine-triggered shrinkage in the presence of MRS-1292” value in the assay with cultured human NPE cells (10 μM adenosine plus MRS-1292) was 11.7 ± 2.6 min. For the same compound, the “Δv∞ steady-state shrinkage” value in the assay on cultured human NPE cells (10 μM adenosine, 2 min pretreatment with MRS-1292, gramicidin, 60 min study) is 1.9±0.2%.

For the compound `CCOC(=O)c1c(CC)c(C(=O)SCC)c(CC)[n+](C)c1-c1ccccc1.[I-]` [MRS-1649, 2,4-diethyl-1-methyl-3-(ethylsulfanylcarbonyl)-5-ethyloxycarbonyl-6-phenylpyridium iodide], the “effect on IOP in the mouse (in words)” value in the assay with mouse IOP [2] (tested by the inventors, technique not given) is on record as “found to lower IOP in the mouse”.

For `CCC(=O)O[C@@H]1[C@H](OC(=O)CC)[C@@H](C(=O)NC)O[C@H]1n1cnc2c(NCc3cccc(I)c3)nc(Cl)nc21` [MRS-3823], in the assay with mouse IOP [3], the “Δ(IOP) Pneumotonometer” value is given as “+0.2 ± 0.8 mm Hg”.

`C[N+](C)(C)CCOC(N)=O` [carbachol]: the “effect on pupil size” value in the assay with pupil size (4 mM droplet, with or without corneal impalement (n=2)) is recorded as “had no effect on pupil size”. Also, the “reduction of the pupil diameter” value in the assay on pupil size (40 mM droplet, 10 min, cornea impaled with micropipette) is on record as 38%. The “contraction of the pupil diameter” value in the assay on pupil size (40 mM droplet, 10 min, cornea impaled, baseline 2.00±0.15 mm) was 0.76±0.09 mm. Further, the “change (increase) of pupil diameter” value in the assay with pupil size (40 mM droplet, 10 min, eye not punctured, baseline 1.80±0.11) is listed as 0.12±0.17 mm.

A word on the Ki: it is a measure of affinity in units of concentration, obtained from inhibition or displacement.
